Measurements: EPA's ToxValDB 9.5 (doi:10.2903/j.efsa.2015.3984)

What was measured:
Daphnia magna = details: chronic/long-term; duration: 21 days
Palaemonetes pugio = details: acute; duration: 96 hours; mortality
Bibionidae = details: chronic/long-term; duration: 28 days; development
Mus musculus = details: acute; oral; mortality
Colinus virginianus = details: reproduction developmental
Oncorhynchus mykiss = details: mortality
Menidia beryllina = details: acute; duration: 96 hours; mortality
Canidae = details: oral, Dog Other, organ weight
Rattus norvegicus = details: chronic
Apis mellifera = details: acute, duration: 48 hours, mortality
Coturnix japonica = details: acute, oral
Lepomis macrochirus = details: acute; duration: 96 hours; mortality
Typhlodromus pyri = assay: LR50; higher = less toxic; details: chronic/long-term; duration: 7 days; mortality
Aphidius rhopalosiphi = assay: LR50; higher = less toxic; details: acute; duration: 48 hours; mortality

SMILES: COc1ncc(F)c2nc(S(=O)(=O)Nc3c(F)cccc3F)nn12 [Florasulam]
- NOEC (Daphnia magna): 23.4 mg/L
- LC50 (Palaemonetes pugio): > 120 µg/mL
- NOEC (Bibionidae): 10 mg/L
- LD50 (Mus musculus): > 5000 mg/kg-day
- NOAEL (Colinus virginianus): 1500 mg/kg-day
- LC50 (Oncorhynchus mykiss; acute, duration: 96 hours): > 100 µg/mL
- NOEC (Oncorhynchus mykiss; chronic/long-term, duration: 28 days): 119 mg/L
- LC50 (Menidia beryllina): > 122 µg/mL
- NOAEL (Canidae; chronic, duration: 1 years): 5 mg/kg-day
- NOAEL (Canidae; subchronic, duration: 90 days): 5 mg/kg-day
- NOAEL (Rattus norvegicus): > 100 mg/kg-day
- LC50 (Tagia sp.; acute, duration: 14 days, mortality): > 1320 mg/kg
- NOEC (Tagia sp.; chronic/long-term): 0.203 mg/kg
- LD50 (Apis mellifera; dermal): > 100 µg/piece
- LD50 (Apis mellifera; oral, unspecified): > 100 µg/piece
- LC50 (Coturnix japonica; diet): > 938 mg/kg-day
- LD50 (Coturnix japonica; mortality): 1050 mg/kg-day
- LC50 (Lepomis macrochirus): > 100 µg/mL
- LR50 (Typhlodromus pyri): > 15 g/ha
- LR50 (Aphidius rhopalosiphi): > 15 g/ha
